pIC50, pKi: −log10 of the molar value. Where a name gives a salt, the structure may show the parent alone. Read-outs that look alike come from different tables or passages of the source.
Tests used:
human 5-HT6 receptor [1] = molecular target: T1, human 5-HT6 receptor (Homo sapiens, UniProt P50406); experiment: 5-HT6 receptor binding assay ([3H]-LSD displacement, SPA, membranes of transfected HEK293 cells)
T1 construct: expressed in transfected cells; host or cells: HEK293 (G-418 selected)

human 5-HT6 receptor [2] = molecular target: T1, human 5-HT6 receptor; experiment: 5-HT6 receptor intrinsic activity assay (inhibition of 5-HT induced increase in cAMP in HEK293/5-HT6 cells); assay type: cell-based; conditions: read-out: Antagonist potency at the human 5-HT6 receptor, IC50,corr
Method: (1997) Neuropharmacology 36: 713-720). Briefly, HEK293/5-HT6 cells were seeded in polylysine coated 96-well plates at a density of 25,000/well and grown in DMEM (Dulbecco's Modified Eagle Medium) (without phenol-red) containing 5% dialyzed Foetal Bovine Serum for 48 h at 37° C. in a 5% CO2 incubator. The medium was then aspirated and replaced by 0.1 ml assay medium (Hanks Balance Salt Solution containing 20 mM HEPES, 1.5 mM isobutylmethylxanthine and 1 mg/ml bovine serum albumin). After addition of test substances, 50 μl dissolved in assay medium, the cells were incubated for 10 min at 37° C. in a 5% CO2 incubator. The medium was again aspirated and the cAMP content was determined using a radioactive cAMP kit (Amersham Pharmacia Biotech, BIOTRAK RPA559).

[3] = [3H]LSD 3 nM, HEK293 membranes, read-out: Binding affinity (Ki) at the human 5-HT6 receptor

T1 sequence (P50406 whole entry): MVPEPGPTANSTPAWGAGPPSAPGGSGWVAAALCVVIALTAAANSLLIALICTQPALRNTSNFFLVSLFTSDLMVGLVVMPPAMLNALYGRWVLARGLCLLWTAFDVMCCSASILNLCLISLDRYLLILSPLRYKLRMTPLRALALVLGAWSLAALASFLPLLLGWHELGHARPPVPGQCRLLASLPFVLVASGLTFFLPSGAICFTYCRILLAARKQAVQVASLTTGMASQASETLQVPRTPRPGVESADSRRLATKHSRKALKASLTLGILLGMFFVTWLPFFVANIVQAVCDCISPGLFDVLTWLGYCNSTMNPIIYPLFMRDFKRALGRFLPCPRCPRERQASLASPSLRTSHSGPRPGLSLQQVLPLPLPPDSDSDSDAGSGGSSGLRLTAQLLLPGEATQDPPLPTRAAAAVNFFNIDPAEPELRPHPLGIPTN

COc1ccc(C)cc1OS(=O)(=O)c1cc(N2CCNCC2)c2occc2c1 [Example 1, 2-Methoxy-5-methylphenyl 7-piperazin-1-yl-1-benzofuran-5-sulfonate, trifluoroacetate]
pKi (human 5-HT6 receptor [1]; [3]): 9.22

O=S(=O)(Oc1ccccc1Cl)c1cc(N2CCNCC2)c2occc2c1 [Example 2, 2-Chlorophenyl 7-piperazin-1-yl-1-benzofuran-5-sulfonate, trifluoroacetate]
pKi (human 5-HT6 receptor [1]; [3]): 8.64
pIC50 (human 5-HT6 receptor [2]): 7.62

O=S(=O)(Oc1ccccc1C(F)(F)F)c1cc(N2CCNCC2)c2occc2c1 [Example 3, 2-(Trifluoromethyl)phenyl 7-piperazin-1-yl-1-benzofuran-5-sulfonate, trifluoroacetate]
pKi (human 5-HT6 receptor [1]; [3]): 8.70

COc1ccc(C)cc1OS(=O)(=O)c1cc(CN2CCN(C)CC2)c2occc2c1 [Example 5, 2-Methoxy-5-methylphenyl 7-[(4-methylpiperazin-1-yl)methyl]-1-benzofuran-5-sulfonate bis(trifluoroacetate)]
pIC50 (human 5-HT6 receptor [2]): 7.31

NCCc1c[nH]c2ccc(O)cc12 [Example 5-HT, 5-hydroxytryptamine]
Hill coefficient (human 5-HT6 receptor [1]; over three experiments): 0.94 (SD 0.09)

CN1CCN(c2cc(S(=O)(=O)Oc3cccnc3)cc3ccoc23)CC1 [Example 7, Pyridin-3-yl 7-(4-methylpiperazin-1-yl)-1-benzofuran-5-sulfonate trifluoroacetate]
pIC50 (human 5-HT6 receptor [2]): 7.14

COc1cccc(OS(=O)(=O)c2cc(N3CCN[C@H](C)C3)c3occc3c2)c1OC [Example 9, 2,3-Dimethoxyphenyl 7-[(3R)-3-methylpiperazin-1-yl]-1-benzofuran-5-sulfonate trifluoroacetate]
pIC50 (human 5-HT6 receptor [2]): 7.31

C[C@@H]1CN(Cc2cc(S(=O)(=O)Oc3ccccc3C(N)=O)cc3ccoc23)CCN1 [Example 16, 2-(Aminocarbonyl)phenyl 7-{[(3R)-3-methylpiperazin-1-yl]methyl}-1-benzofuran-5-sulfonate bis(trifluoroacetate)]
pIC50 (human 5-HT6 receptor [2]): 6.70

COc1ccc(C)cc1OS(=O)(=O)c1cc(CN2CCCNCC2)c2occc2c1 [Example 18, 2-Methoxy-5-methylphenyl 7-(1,4-diazepan-1-ylmethyl)-1-benzofuran-5-sulfonate trifluoroacetate]
pIC50 (human 5-HT6 receptor [2]): 6.31

CN1C[C@@H](NS(=O)(=O)N(C)C)C[C@@H]2c3cccc4c3c(cn4C)C[C@H]21 [mesulergide]
pKi (human 5-HT6 receptor [1]; over all average, 5-HT tested against two different membrane preparations, read-out: Ki value, inhibition of [3H]LSD binding (rank order of potency of unlabelled ligands)): 5.71

CC[C@@H](CO)NC(=O)[C@@H]1C=C2c3cccc4c3c(cn4C)C[C@H]2N(C)C1 [methysergide]
pKi (human 5-HT6 receptor [1]): 6.32
